Results on 13 compounds are retold here after ChEMBL document CHEMBL3352725, “An uncharged oxetanyl sulfoxide as a covalent modifier for improving aqueous solubility” (ACS Med Chem Lett, 2014).

SMILES strings stand for the structures. ≈ marks a conversion by molar mass, not a printed value.

The first series can be described thus: Aqueous solubility of the compound in H2O after 24 hrs incubation at 30 degC by LCMS analysis. It counts as physicochemical. The note with it: buffer, 24 h.
One may read the solubility as how much of the substance goes into solution per volume. A high value points to a readily soluble substance. For the compound `Cc1ccc(Cl)c(Nc2ccccc2C(=O)O)c1Cl` [MECLOFENAMIC ACID], the solubility turned out to be 550 µg/mL (≈ 1860 µM).

The same series, now with this note: water.
`COc1ccc2cc([C@H](C)C(=O)OCCSCC3(C)COC3)ccc2c1` showed a solubility at 24 h of 13 µg/mL (≈ 34.7 µM).
`COc1ccc2cc([C@H](C)C(=O)OCCS(=O)(=O)CC3(C)COC3)ccc2c1` registered a solubility at 24 h of 63 µg/mL (≈ 155 µM).
In turn, `COc1ccc2cc([C@H](C)C(=O)OCC[S+](C)[O-])ccc2c1` (some centres undefined) came in with a solubility at 24 h of 270 µg/mL (≈ 843 µM).
`Cc1ccc(Cl)c(Nc2ccccc2C(=O)OCC[S+]([O-])CC2(C)COC2)c1Cl` (centres undefined) displayed a solubility at 24 h of 250 µg/mL (≈ 548 µM).
The same measure, in the same setting: then `CC1(C[S+]([O-])CCOC(=O)N2CCN(c3cc4c(cc3F)c(=O)c(C(=O)O)cn4C3CC3)CC2)COC1` (centres undefined), with 190 µg/mL (≈ 355 µM); and `Cc1cc(NS(=O)(=O)c2ccc(NC(=O)OCC[S+]([O-])CC3(C)COC3)cc2)no1` (centres undefined), with 1000 µg/mL (≈ 2190 µM).
The same measure, in the same setting: next, `CCOC(=O)Nc1ccc2sc3c(c2c1)SCCNC3=O`: 67 µg/mL (≈ 208 µM); `CC1(C[S+]([O-])CCOC(=O)Nc2ccc3sc4c(c3c2)SCCNC4=O)COC1` (centres undefined): 440 µg/mL (≈ 968 µM).
For the compound `CC(C)C[C@@H](/C=C/CC(=O)NC1CC(C)(C)N([O])C(C)(C)C1)NC(=O)OC(C)(C)C`, the solubility at 24 h was 250 µg/mL (≈ 589 µM).
With `COc1ccc2cc([C@H](C)C(=O)OCC[S+]([O-])CC3(C)COC3)ccc2c1` (mixture of isomers), the solubility at 24 h was found to be 820 µg/mL.
The same measure, in the same setting: next, `C[C@H](CCC(=O)OCC[S+]([O-])CC1(C)COC1)[C@H]1CC[C@H]2[C@@H]3CC[C@@H]4C[C@H](O)CC[C@]4(C)[C@H]3CC[C@]12C` (mixture of isomers): 260 µg/mL.
For the compound `CC(C)C[C@@H](/C=C/CC(=O)NC1CC(C)(C)N([O])C(C)(C)C1)NC(=O)OCC[S+]([O-])CC1(C)COC1` (mixture of isomers), the solubility at 24 h is 24000 µg/mL.

The next series is described as follows: Metabolic stability in mouse liver microsomes assessed as compound remaining after 1 hr. It counts as ADME. The note with it: read-out: Stability. In general terms: Microsomes from liver hold many membrane-bound enzymes, among them those of drug oxidation.
On to `CC(C)C[C@@H](/C=C/CC(=O)NC1CC(C)(C)N([O])C(C)(C)C1)NC(=O)OCC[S+]([O-])CC1(C)COC1` (mixture of isomers), for which the remaining at 1 h was 16%.
